In general, IC50 refers to the concentration needed to halve the response being measured.

Test [1] deals with Btk (Homo sapiens, UniProt Q06187). The test can be described thus: Analysis of in vitro inhibitory activity of Btk (cell-free TR-FRET kinase assay). It counts as biochemical. The note with it: for IC50: cell-free TR-FRET, ATP at Km, 1 h, read-out: Efficacy (Btk IC50); for inhibitory effects against Btk (in words): summary of Table 1 efficacy data. On the procedure:
In a cell-free kinase assay, the method described below or a similar method was used to determine the half inhibitory concentration (IC50) of the compound of the present invention on Btk.
Btk kinase activity was determined using a time-resolved fluorescence resonance energy transfer (TR-FRET) methodology. Measurements were performed in a reaction volume of 50 μL using 96-well assay plates. […] The reaction was quenched by the addition of 1.2 equivalents of EDTA (relative to divalent cation) in […] of 1× Lance buffer (Perkin-Elmer). Streptavidin-APC (Perkin-Elmer) and Eu-labeled p-Tyr100 antibody (Perkin-Elmer) in 1× Lance buffer were added in a volume of 25 μL to give final concentrations of 100 nM and 2.5 nM, respectively. The mixture was allowed to incubate for 1 h. The TR-FRET signal was measured on a multimode plate reader at an excitation wavelength (λEx) of 330 nm and detection wavelengths (λEm) of 615 and 665 nm. The activity was determined by the ratio of fluorescence at 665 nm to that at 615 nm. For each compound, the enzyme activity was measured in the presence of different concentrations of the compound. Negative control reactions were performed in the absence of inhibitor in replicates of six, and two no-enzyme controls were used to determine baseline fluorescence levels. IC50 was obtained by fitting using the program Batch Ki (Kuzmic, et al. (2000), Anal. Biochem. 286:45-50).
The Example compounds 1-50 of the present invention were synthesized according to the above Synthetic Schemes I to VII. In the analysis of in vitro inhibitory activity of Btk, the IC50 values of the Example compounds 1-50 of the present invention were determined. The IC50 values are given according to the interval of the IC50 value, where “+++” means IC50<100 nM; “++” means 100 nM≤IC50<1000 nM; and “+” means 1000 nM≤IC50<10000 nM.
(TR-FRET usually uses a lanthanide donor and a delayed reading to cut background.)

Test [2] has as its system OCI-LY7 cells. The test can be described thus: Cell viability assay (CellTiter-Glo, 72 h). It counts as cell-based. The note with it: Homo sapiens, read-out: Results from inhibition of OCI-LY7 cells (IC50). On the procedure:
An in vitro cell viability assay was conducted using the compounds of Examples 1-50 following the steps below:
1. After OCI-LY7 cells were recovered, they were cultured at 37° C., 5% CO2, and 95% humidity.
2. For the compounds of Examples 1-50, 8 compound solutions at different concentrations were prepared, respectively. 50 μL of the compound solution at each concentration was added to a 96-well black plate.
3. The cell concentration was adjusted to about 30,000 cells/mL. 100 μL of cell suspension was added to the 96-well plate, and mixed well. The final cell density was about 3,000 cells/well.
4. The 96-well plate was placed at 37° C., 5% CO2, and 95% humidity for 72 h.
5. The cell survival rate was measured by the method of CellTiter-Glo® Luminescent Cell Viability Assay (Promega, Cat #G7572). The fluorescence data were read on a microplate reader (EnVision™, a multi-function microplate detector, PerkinElmer).
6. The obtained fluorescence data were analyzed using GraphPad Prism software. The cell survival rate was calculated for each example compound at each concentration, and the IC50 interval of each example compound was obtained.
Background: In ATP-based viability assays light output follows the ATP content of the culture.

Molecules are shown by their SMILES.

Sequence of Btk (Q06187 whole entry): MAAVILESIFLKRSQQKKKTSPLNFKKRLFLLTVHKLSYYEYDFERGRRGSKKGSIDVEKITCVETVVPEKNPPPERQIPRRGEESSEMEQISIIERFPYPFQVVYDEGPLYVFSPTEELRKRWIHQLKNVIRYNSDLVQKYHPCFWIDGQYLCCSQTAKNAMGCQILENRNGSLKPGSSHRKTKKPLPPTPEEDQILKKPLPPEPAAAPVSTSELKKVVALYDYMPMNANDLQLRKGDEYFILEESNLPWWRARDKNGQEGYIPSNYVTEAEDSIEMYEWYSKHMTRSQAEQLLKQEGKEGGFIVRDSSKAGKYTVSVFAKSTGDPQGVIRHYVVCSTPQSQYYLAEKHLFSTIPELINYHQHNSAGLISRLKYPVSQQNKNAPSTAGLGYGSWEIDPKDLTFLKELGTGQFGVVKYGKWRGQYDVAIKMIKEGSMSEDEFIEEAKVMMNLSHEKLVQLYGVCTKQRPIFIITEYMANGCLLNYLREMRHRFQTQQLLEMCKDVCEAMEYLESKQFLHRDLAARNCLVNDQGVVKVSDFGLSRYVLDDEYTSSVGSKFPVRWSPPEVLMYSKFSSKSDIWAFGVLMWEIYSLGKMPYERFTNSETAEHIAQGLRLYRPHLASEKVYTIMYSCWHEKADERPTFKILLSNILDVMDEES

In the case of `C=CC(=O)N(CCN(C)C)c1cccc(Nc2ncc3cc(-c4c(C)cc[nH]c4=O)ccc3n2)c1` [Example 43], the IC50 in test [1] is under 100 nM; in test [2], at least 2500 nM.

Regarding `C=CC(=O)N(CC)c1cccc(Nc2ncc3cc(-c4c(C)ccn(C(C)=O)c4=O)ccc3n2)c1` [Example 29], the half-maximal inhibitory concentration (IC50) in test [1] lay in the range of 100 to 1000 nM; in test [2], 500 to 2500 nM.

For the compound `[2H]C([2H])([2H])C([2H])([2H])N(C(=O)C=C)c1cccc(Nc2ncc3cc(-c4c(C)cc[nH]c4=O)ccc3n2)c1` [Example 47], the values for the IC50 in test [1] and in test [2] were under 100 nM and under 500 nM, respectively.

Turning to `C=CC(=O)N(CC)c1cccc(Nc2ncc3cc(-c4c(C)ccn(C(=O)OCC)c4=O)ccc3n2)c1` [Example 28], the IC50 in test [1] was under 100 nM; in test [2], under 500 nM.

In the case of `Cc1cc[nH]c(=O)c1-c1ccc2nc(Nc3cccc(NC(=O)CCN(C)C)c3)ncc2c1` [Example 11], the IC50 in test [1] is under 100 nM; in test [2], under 500 nM.

Turning to `[2H]C([2H])=C([2H])C(=O)N(c1cccc(Nc2ncc3cc(-c4c(C)cc[nH]c4=O)ccc3n2)c1)C([2H])([2H])C([2H])([2H])[2H]` [Example 49], the IC50 is under 100 nM in test [1] and under 500 nM in test [2].

`CCN(C(=O)/C=C/CN(C)C)c1cccc(Nc2ncc3cc(-c4c(C)cc[nH]c4=O)ccc3n2)c1` [Example 34]: in test [1], the IC50 is under 100 nM and the “inhibitory effects against Btk (in words)” value (shortened to “inhibitory effects”) is “particularly excellent inhibitory effects”. The IC50 in test [2] was 500 to 2500 nM.

Consider `C=CC(=O)N(CC)c1cccc(Nc2ncc3cc(-c4c(C)ccn(C(=O)OCc5ccccc5)c4=O)ccc3n2)c1` [Example 31], for which the IC50 in test [1] is under 100 nM; in test [2] it was under 500 nM.

Regarding `C=CC(=O)Nc1cccc(Nc2ncc3cc(-c4c(C)ccn(-c5ccc(N6CCOCC6)cc5)c4=O)ccc3n2)c1` [Example 15], the IC50 in test [1] is 100 to 1000 nM; in test [2], under 500 nM.

With `C=CC(=O)NCC(=O)Nc1cccc(Nc2ncc3cc(-c4c(C)cc[nH]c4=O)ccc3n2)c1` [Example 10], the IC50 in test [1] was under 100 nM; in test [2] it was under 500 nM.

With `[2H]C([2H])=C([2H])C(=O)N(CC)c1cccc(Nc2ncc3cc(-c4c(C)cc[nH]c4=O)ccc3n2)c1` [Example 48], the half-maximal inhibitory concentration (IC50) in test [1] is under 100 nM; in test [2] it was under 500 nM.

Take `C=CC(=O)Nc1cccc(Nc2ncc3cc(-c4c(C)ccn(C)c4=O)ccc3n2)c1` [Example 17]: the IC50 lay in the range of 100 to 1000 nM in test [1] and 500 to 2500 nM in test [2].

Take `[2H]C([2H])=C([2H])C(=O)N(C)c1cccc(Nc2ncc3cc(-c4c(C)cc[nH]c4=O)ccc3n2)c1` [Example 45]: in test [1], the IC50 is under 100 nM and the “inhibitory effects” value is on record as “particularly excellent inhibitory effects”. Also, the IC50 in test [2] was under 500 nM.

Take `C=CC(=O)N1CCOc2ccc(Nc3ncc4cc(-c5c(C)cc[nH]c5=O)ccc4n3)cc21` [Example 42]: the concentration for half-maximal inhibition (IC50) is under 100 nM in test [1] and 500 to 2500 nM in test [2].

Take `Cc1cc[nH]c(=O)c1-c1ccc2nc(Nc3cccc(NC(=O)/C=C/CN4CCOCC4)c3)ncc2c1` [Example 8]: the IC50 was under 100 nM in test [1] and under 500 nM in test [2].

Regarding `Cc1cc[nH]c(=O)c1-c1ccc2nc(Nc3cccc(NC(=O)/C=C/CN(C)C)c3)ncc2c1` [Example 5], the IC50 is under 100 nM in test [1] and under 500 nM in test [2]. Also, the “inhibitory effects” value in test [1] is “particularly excellent inhibitory effects”.

On to `C/C=C/C(=O)Nc1cccc(Nc2ncc3cc(-c4c(C)cc[nH]c4=O)ccc3n2)c1` [Example 4], for which the results for the IC50 in test [1] and in test [2] were under 100 nM and under 500 nM, respectively.

As for `CNc1cccc(Nc2ncc3cc(-c4c(C)cc[nH]c4=O)ccc3n2)c1` [Example 22], the IC50 in test [1] was under 100 nM; in test [2], under 500 nM.

For the compound `C=C(F)C(=O)N(CC)c1cccc(Nc2ncc3cc(-c4c(C)cc[nH]c4=O)ccc3n2)c1` [Example 35], the IC50 is under 100 nM in test [1] and under 500 nM in test [2].

Take `C=CC(=O)Nc1cc(Nc2ncc3cc(-c4c(C)cc[nH]c4=O)ccc3n2)ccc1OCCOC` [Example 6]: the results for the IC50 in test [1] and in test [2] were under 100 nM and under 500 nM, respectively.

Turning to `Cc1ccn(-c2cccc(C(F)(F)F)c2)c(=O)c1-c1ccc2nc(Nc3cccc(N)c3)ncc2c1` [Example 12], the IC50 in test [1] is 1000 to 10000 nM; in test [2] it was under 500 nM.

For `C=CC(=O)N(CC)c1cc(Nc2ncc3cc(-c4c(C)cc[nH]c4=O)ccc3n2)ccc1OC` [Example 37], the values for the IC50 in test [1] and in test [2] were under 100 nM and under 500 nM, respectively. In test [1], the “inhibitory effects” value is listed as “particularly excellent inhibitory effects”.

Consider `C=CC(=O)N(CCOC)c1cccc(Nc2ncc3cc(-c4c(C)cc[nH]c4=O)ccc3n2)c1` [Example 38], for which, in test [1], the IC50 was under 100 nM and the “inhibitory effects” value is recorded as “particularly excellent inhibitory effects”. Besides, the IC50 in test [2] was under 500 nM.

For the compound `Cc1cc[nH]c(=O)c1-c1ccc2nc(Nc3cccc(N(C)C(=O)/C=C/CN(C)C)c3)ncc2c1` [Example 24], in test [1], the IC50 was under 100 nM and the “inhibitory effects” value is listed as “particularly excellent inhibitory effects”. Also, the concentration for half-maximal inhibition (IC50) in test [2] was under 500 nM.

Regarding `C=CC(=O)N(CC)c1cccc(Nc2ncc3cc(-c4c(C)ccn(C(=O)N(C)C)c4=O)ccc3n2)c1` [Example 30], the figures for the concentration for half-maximal inhibition (IC50) in test [1] and in test [2] were 100 to 1000 nM and at least 2500 nM, respectively.

For the compound `Cc1cc[nH]c(=O)c1-c1ccc2nc(Nc3cccc(NC(=O)[C@@H]4CCCN4)c3)ncc2c1` [Example 20], the half-inhibitory concentration (IC50) in test [1] is 100 to 1000 nM; in test [2], 500 to 2500 nM.

Consider `[2H]C([2H])=C([2H])C(=O)N(CCOC)c1cccc(Nc2ncc3cc(-c4c(C)cc[nH]c4=O)ccc3n2)c1` [Example 50], for which the IC50 in test [1] is under 100 nM; in test [2] it was under 500 nM. Moreover, the “inhibitory effects” value in test [1] was “particularly excellent inhibitory effects”.

`C=CC(=O)Nc1cc(Nc2ncc3cc(-c4c(C)cc[nH]c4=O)ccc3n2)ccc1OC` [Example 36]: the IC50 is under 100 nM in test [1] and under 500 nM in test [2].

For the compound `C=CC(=O)N(c1cccc(Nc2ncc3cc(-c4c(C)cc[nH]c4=O)ccc3n2)c1)C(C)C` [Example 27], the IC50 in test [1] is under 100 nM; in test [2], under 500 nM.

For `Cc1cc[nH]c(=O)c1-c1ccc2nc(Nc3cccc(NC(=O)/C=C/CN4CCCCC4)c3)ncc2c1` [Example 7], the IC50 in test [1] was under 100 nM; in test [2], under 500 nM.

Regarding `Cc1ccn(-c2ccc(N3CCOCC3)cc2)c(=O)c1-c1ccc2nc(Nc3cccc(N)c3)ncc2c1` [Example 14], the results for the IC50 in test [1] and in test [2] were 100 to 1000 nM and under 500 nM, respectively.

For `Cc1ccn(C)c(=O)c1-c1ccc2nc(Nc3cccc(N)c3)ncc2c1` [Example 16], the IC50 in test [1] was in the range of 1000 to 10000 nM; in test [2], 500 to 2500 nM.

As for `[2H]C([2H])=C([2H])C(=O)N(c1cccc(Nc2ncc3cc(-c4c(C)cc[nH]c4=O)ccc3n2)c1)C([2H])([2H])[2H]` [Example 46], in test [1], the IC50 is under 100 nM and the “inhibitory effects” value was “particularly excellent inhibitory effects”. The IC50 in test [2] was under 500 nM.

On to `C=CC(=O)Nc1cccc(Nc2ncc3cc(-c4c(C)ccn(-c5cccc(C(F)(F)F)c5)c4=O)ccc3n2)c1` [Example 13], for which the concentration for half-maximal inhibition (IC50) was 100 to 1000 nM in test [1] and under 500 nM in test [2].

On to `C=CC(=O)N(CC)c1cc(Nc2ncc3cc(-c4c(C)cc[nH]c4=O)ccc3n2)ccc1C` [Example 40], for which the IC50 in test [1] is under 100 nM; in test [2], 500 to 2500 nM.

On to `CCC(=O)Nc1cccc(Nc2ncc3cc(-c4c(C)cc[nH]c4=O)ccc3n2)c1` [Example 3], for which the IC50 in test [1] is under 100 nM; in test [2] it was under 500 nM.

Consider `Cc1cc[nH]c(=O)c1-c1ccc2nc(Nc3cccc(N)c3)ncc2c1` [Example 1], for which the IC50 in test [1] is under 100 nM; in test [2], under 500 nM.

Regarding `C=CC(=O)N1CCC[C@H]1C(=O)Nc1cccc(Nc2ncc3cc(-c4c(C)cc[nH]c4=O)ccc3n2)c1` [Example 21], the results for the IC50 in test [1] and in test [2] were under 100 nM and under 500 nM, respectively.

The values above are taken from US20220017484A1, “INHIBITOR OF BRUTON TYROSINE KINASE” (BEIJING RECIPROCAPHARMACEUTICALS CO., LTD., priority 2018, published 2022).
